Assay results from ChEMBL document CHEMBL3217564, “The design and synthesis of 5- and 6-isoxazolylbenzimidazoles as selective inhibitors of the BET bromodomains” (Medchemcomm, 2013).

Columns and labels:
[1] = molecular target: T1, Bromodomain-containing protein 4 (Homo sapiens, UniProt O60885); assay: Inhibition of BRD4 bromodomain-1 (unknown origin) by AlphaScreen assay
[2] = Inhibition of CBP (unknown origin) by AlphaScreen assay; design: species or system Homo sapiens
Homo sapiens [3] = species on record: Homo sapiens; assay: Selectivity ratio of IC50 for BRD4 bromodomain-1 (unknown origin) to IC50 for CBP (unknown origin)
[4] = molecular target: T2, Bromodomain-containing protein 9 (Homo sapiens) (UniProt Q9H8M2); assay: Binding affinity to BRD9 bromodomain (unknown origin) assessed as change in melting temperature at 10 uM by differential scanning fluorimetric analysis
T2 sequence (whole entry): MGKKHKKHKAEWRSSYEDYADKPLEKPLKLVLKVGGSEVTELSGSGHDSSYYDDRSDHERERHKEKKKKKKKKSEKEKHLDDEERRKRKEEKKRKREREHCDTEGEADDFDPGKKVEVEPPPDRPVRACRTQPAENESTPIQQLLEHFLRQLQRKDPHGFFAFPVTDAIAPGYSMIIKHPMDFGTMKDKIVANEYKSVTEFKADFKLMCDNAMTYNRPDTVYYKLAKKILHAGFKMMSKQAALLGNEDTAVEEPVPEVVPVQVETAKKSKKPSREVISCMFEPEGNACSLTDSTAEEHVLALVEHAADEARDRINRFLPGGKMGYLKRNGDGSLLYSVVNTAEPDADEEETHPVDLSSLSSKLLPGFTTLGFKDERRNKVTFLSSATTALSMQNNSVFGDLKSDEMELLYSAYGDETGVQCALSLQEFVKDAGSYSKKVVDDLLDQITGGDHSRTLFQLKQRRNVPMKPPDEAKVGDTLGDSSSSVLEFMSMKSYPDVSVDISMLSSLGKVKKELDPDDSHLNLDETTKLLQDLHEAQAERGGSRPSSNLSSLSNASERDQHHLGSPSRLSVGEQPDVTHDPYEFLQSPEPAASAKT

[5] = molecular target: T3, ATPase family AAA domain-containing protein 2 (Homo sapiens) (UniProt Q6PL18); assay: Binding affinity to ATAD2 bromodomain (unknown origin) assessed as change in melting temperature at 10 uM by differential scanning fluorimetric analysis
T3 sequence (whole entry): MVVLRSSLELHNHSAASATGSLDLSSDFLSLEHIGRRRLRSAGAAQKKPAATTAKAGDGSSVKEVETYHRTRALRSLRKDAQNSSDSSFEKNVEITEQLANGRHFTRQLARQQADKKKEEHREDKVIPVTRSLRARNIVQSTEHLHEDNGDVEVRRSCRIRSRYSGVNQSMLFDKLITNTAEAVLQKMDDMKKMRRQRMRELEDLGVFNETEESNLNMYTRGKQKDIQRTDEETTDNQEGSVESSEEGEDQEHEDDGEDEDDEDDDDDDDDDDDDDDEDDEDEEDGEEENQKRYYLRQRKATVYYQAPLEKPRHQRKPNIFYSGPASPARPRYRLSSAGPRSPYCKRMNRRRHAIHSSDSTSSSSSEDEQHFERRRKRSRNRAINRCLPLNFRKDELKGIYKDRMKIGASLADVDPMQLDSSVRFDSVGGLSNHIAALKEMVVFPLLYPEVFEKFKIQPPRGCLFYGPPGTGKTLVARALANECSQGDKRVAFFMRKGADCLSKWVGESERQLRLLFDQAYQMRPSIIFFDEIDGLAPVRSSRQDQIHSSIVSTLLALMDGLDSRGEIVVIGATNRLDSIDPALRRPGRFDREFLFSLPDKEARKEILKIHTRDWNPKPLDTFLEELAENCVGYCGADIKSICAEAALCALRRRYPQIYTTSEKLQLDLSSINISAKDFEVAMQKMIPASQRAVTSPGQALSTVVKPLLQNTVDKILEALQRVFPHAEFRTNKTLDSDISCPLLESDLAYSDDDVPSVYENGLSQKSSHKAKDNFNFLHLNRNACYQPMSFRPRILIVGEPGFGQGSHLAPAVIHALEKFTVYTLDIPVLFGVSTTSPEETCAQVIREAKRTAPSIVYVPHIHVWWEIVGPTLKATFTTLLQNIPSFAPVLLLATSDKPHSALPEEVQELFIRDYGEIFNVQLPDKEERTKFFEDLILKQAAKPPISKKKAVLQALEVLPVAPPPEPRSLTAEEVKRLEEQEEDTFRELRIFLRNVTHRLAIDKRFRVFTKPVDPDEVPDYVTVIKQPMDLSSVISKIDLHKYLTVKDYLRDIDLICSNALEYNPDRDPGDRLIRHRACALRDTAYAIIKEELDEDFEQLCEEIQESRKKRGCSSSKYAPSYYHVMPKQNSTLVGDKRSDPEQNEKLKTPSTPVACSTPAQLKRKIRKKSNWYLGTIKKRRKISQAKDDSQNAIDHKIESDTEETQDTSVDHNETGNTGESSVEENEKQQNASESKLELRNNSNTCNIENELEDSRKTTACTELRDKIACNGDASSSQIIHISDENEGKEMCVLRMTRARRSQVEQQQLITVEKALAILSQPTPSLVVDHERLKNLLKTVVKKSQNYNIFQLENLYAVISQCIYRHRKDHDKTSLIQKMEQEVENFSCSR

Homo sapiens [6] = species on record: Homo sapiens; assay: Binding affinity to CBP (unknown origin) assessed as change in melting temperature at 10 uM by differential scanning fluorimetric analysis
[7] = molecular target: T4, Transcription intermediary factor 1-alpha (Homo sapiens) (UniProt O15164); assay: Binding affinity to TIF1alpha bromodomain (unknown origin) assessed as change in melting temperature at 10 uM by differential scanning fluorimetric analysis
T4 sequence (whole entry): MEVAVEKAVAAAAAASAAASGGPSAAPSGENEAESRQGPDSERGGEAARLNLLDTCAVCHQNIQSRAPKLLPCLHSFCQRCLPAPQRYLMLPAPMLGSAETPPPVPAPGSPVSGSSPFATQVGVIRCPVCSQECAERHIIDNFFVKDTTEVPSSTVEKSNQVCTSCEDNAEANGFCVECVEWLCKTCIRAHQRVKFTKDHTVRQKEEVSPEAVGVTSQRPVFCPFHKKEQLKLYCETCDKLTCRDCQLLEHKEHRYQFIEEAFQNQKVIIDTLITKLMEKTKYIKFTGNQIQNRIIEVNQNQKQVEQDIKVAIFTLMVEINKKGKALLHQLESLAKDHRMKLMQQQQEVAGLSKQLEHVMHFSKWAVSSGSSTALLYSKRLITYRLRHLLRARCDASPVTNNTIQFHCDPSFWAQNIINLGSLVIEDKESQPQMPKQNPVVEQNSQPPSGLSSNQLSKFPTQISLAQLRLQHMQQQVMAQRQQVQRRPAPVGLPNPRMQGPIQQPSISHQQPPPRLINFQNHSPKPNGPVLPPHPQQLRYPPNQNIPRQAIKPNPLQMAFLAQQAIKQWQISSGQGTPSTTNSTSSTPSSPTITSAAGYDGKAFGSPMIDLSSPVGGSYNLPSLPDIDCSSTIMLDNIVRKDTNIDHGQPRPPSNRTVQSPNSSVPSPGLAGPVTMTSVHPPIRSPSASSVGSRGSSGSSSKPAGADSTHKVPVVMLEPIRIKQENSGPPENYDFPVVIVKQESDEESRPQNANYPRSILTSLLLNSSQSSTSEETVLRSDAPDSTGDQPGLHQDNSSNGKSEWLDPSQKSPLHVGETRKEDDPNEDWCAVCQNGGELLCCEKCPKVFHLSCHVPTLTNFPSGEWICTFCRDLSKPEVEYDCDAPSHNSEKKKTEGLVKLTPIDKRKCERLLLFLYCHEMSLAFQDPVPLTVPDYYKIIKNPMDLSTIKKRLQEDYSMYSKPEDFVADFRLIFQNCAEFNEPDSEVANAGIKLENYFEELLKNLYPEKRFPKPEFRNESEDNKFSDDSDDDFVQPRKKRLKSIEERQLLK

[8] = molecular target: Transcription initiation factor TFIID subunit 1 (Homo sapiens) (UniProt P21675); assay: Binding affinity to TAF1 bromodomain-2 (unknown origin) assessed as change in melting temperature at 10 uM by differential scanning fluorimetric analysis
[9] = molecular target: Protein polybromo-1 (Homo sapiens) (UniProt Q86U86); assay: Binding affinity to PB1-5 bromodomain (unknown origin) assessed as change in melting temperature at 10 uM by differential scanning fluorimetric analysis
[10] = molecular target: PH-interacting protein (Homo sapiens) (UniProt Q8WWQ0); assay: Binding affinity to PHIP bromodomain-2 (unknown origin) assessed as change in melting temperature at 10 uM by differential scanning fluorimetric analysis
[11] = molecular target: T1, Bromodomain-containing protein 4; assay: Binding affinity to BRD4 bromodomain-2 (unknown origin) assessed as change in melting temperature at 10 uM by differential scanning fluorimetric analysis
[12] = molecular target: Histone acetyltransferase KAT2B (Homo sapiens) (UniProt Q92831); assay: Binding affinity to PCAF bromodomain (unknown origin) assessed as change in melting temperature at 10 uM by differential scanning fluorimetric analysis
Sequence of Histone acetyltransferase KAT2B (Homo sapiens) (Q92831 whole entry, looked up): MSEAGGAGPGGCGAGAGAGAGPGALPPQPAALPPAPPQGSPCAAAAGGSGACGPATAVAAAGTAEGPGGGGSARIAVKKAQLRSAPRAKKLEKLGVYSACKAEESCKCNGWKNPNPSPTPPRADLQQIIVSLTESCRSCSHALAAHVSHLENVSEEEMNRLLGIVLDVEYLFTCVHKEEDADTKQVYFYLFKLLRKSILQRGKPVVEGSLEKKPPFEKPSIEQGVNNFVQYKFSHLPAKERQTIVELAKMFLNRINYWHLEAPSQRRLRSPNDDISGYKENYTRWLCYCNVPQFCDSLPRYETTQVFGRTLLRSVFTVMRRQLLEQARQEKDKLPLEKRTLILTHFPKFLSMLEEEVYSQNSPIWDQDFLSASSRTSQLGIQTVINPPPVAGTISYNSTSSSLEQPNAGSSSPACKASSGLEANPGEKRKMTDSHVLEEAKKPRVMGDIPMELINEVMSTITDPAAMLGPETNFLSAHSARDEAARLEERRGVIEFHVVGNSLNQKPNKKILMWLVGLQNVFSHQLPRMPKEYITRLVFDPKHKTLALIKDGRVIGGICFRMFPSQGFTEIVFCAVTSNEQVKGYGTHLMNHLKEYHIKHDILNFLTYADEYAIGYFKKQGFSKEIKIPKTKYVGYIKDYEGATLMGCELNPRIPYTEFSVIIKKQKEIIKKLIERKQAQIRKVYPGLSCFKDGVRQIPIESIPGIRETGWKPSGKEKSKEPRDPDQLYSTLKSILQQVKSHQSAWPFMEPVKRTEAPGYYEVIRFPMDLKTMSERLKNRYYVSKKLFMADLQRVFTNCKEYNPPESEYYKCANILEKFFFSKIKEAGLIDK

Sequence of Transcription initiation factor TFIID subunit 1 (Homo sapiens) (P21675 whole entry): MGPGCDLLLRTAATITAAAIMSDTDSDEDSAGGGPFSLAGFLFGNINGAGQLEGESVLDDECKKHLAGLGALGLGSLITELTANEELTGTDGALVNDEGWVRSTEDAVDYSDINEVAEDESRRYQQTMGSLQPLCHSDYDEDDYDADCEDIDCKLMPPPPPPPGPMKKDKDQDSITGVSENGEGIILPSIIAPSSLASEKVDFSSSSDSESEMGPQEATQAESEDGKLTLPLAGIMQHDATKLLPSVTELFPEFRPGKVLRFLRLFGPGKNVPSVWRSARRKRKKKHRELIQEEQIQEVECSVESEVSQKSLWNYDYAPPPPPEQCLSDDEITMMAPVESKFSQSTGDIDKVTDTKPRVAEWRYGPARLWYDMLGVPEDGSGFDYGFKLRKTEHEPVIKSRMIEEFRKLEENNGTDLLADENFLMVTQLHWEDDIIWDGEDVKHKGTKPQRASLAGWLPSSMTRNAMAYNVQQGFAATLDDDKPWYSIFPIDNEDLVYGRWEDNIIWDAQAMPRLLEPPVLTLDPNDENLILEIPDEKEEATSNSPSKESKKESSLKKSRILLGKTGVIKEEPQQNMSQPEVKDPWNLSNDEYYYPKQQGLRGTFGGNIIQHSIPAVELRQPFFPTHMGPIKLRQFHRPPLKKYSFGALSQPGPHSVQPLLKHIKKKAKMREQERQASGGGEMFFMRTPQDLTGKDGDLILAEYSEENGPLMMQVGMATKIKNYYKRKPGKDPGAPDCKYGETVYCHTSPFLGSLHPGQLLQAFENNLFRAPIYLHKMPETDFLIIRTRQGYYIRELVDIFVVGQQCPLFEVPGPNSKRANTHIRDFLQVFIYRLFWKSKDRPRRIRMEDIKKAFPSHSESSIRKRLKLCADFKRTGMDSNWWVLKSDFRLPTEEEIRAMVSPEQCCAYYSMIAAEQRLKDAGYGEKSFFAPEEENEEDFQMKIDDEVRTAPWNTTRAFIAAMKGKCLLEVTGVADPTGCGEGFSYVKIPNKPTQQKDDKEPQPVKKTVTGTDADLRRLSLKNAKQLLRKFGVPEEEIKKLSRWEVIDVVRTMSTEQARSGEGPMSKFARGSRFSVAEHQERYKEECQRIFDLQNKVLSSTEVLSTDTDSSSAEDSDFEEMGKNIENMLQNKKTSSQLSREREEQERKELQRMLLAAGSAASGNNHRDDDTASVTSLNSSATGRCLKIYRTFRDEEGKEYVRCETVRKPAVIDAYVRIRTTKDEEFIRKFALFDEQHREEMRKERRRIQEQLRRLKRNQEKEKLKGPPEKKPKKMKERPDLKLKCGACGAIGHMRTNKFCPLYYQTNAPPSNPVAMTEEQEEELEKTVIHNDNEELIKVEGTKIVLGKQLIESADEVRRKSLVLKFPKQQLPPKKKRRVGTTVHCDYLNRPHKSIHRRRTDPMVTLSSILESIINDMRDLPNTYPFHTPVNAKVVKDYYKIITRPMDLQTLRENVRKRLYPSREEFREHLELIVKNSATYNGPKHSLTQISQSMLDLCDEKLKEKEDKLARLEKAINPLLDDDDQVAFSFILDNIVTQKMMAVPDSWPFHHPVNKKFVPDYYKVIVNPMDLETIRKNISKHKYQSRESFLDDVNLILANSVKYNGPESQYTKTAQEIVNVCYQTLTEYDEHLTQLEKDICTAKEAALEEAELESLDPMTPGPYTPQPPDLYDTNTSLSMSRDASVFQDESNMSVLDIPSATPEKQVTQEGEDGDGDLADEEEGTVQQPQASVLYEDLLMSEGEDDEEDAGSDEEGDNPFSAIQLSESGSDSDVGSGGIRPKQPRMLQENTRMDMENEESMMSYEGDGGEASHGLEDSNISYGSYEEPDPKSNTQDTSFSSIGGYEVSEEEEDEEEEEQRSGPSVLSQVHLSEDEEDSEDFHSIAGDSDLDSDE
Sequence of Protein polybromo-1 (Homo sapiens) (Q86U86 whole entry): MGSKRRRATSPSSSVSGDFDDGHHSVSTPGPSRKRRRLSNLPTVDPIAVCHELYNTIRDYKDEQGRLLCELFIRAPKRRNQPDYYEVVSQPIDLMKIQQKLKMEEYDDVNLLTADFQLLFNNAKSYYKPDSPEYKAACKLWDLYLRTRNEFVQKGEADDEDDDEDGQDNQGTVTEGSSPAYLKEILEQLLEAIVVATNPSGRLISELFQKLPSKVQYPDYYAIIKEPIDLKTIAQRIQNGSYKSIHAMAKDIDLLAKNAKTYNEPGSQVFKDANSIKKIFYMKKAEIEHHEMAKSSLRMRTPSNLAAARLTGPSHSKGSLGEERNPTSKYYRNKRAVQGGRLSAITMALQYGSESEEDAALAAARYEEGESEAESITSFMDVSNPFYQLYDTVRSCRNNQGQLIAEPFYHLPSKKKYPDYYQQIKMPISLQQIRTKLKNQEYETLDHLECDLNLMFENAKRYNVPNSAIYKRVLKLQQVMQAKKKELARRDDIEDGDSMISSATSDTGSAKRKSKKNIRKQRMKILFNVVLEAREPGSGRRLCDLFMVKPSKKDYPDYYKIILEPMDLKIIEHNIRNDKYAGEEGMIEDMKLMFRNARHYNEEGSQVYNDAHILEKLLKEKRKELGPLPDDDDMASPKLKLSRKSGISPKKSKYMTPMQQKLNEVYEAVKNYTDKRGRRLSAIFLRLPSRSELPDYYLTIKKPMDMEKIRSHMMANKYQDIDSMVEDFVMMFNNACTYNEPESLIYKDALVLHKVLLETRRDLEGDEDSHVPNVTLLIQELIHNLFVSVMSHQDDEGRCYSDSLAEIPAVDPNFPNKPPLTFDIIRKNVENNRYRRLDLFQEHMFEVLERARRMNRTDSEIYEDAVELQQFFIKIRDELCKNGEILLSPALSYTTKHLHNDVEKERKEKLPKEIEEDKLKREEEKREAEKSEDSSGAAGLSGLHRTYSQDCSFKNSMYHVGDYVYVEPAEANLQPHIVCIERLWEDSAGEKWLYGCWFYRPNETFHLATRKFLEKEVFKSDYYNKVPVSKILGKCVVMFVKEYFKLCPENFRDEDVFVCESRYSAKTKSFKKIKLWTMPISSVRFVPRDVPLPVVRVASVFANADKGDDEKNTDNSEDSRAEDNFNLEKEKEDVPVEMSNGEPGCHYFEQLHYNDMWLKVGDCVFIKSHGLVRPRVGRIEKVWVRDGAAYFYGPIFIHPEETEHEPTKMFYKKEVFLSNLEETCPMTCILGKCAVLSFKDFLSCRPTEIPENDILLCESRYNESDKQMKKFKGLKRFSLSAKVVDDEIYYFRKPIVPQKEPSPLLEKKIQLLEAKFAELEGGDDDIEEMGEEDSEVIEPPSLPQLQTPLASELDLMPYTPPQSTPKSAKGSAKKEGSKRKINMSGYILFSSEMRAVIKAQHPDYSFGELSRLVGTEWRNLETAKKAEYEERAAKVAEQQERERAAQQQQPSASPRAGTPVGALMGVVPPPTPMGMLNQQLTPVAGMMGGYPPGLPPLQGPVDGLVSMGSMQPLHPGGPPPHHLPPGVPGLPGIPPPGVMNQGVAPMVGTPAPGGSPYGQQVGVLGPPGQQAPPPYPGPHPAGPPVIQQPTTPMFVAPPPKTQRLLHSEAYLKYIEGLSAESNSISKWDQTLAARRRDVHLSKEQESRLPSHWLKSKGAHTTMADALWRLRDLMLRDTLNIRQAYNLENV

Row | SMILES | IC50 ([1]; read-out: pIC50 (converted)) [nM] | pIC50 [2] | further results
1 | Cc1noc(C)c1-c1ccc2c(c1)C(OCCCN1CCNCC1)CC2 (racemic) | 3980 |  | 
2 | Cc1noc(C)c1-c1ccc2ncn(Cc3cccc(F)c3)c2c1 | 631 | 4.9 | 
3 | COc1ccc(Cn2cnc3ccc(-c4c(C)noc4C)cc32)cc1 | 794 | < 5 | 
4 | Cc1noc(C)c1-c1ccc2ncn(Cc3cccc(Cl)c3)c2c1 | 1260 | 4.7 | 
5 | Cc1noc(C)c1-c1ccc2c(c1)C(O)(c1ccccc1)CC2 (racemic) | 1260 | 4.7 | 
6 | Cc1noc(C)c1-c1ccc2c(c1)ncn2Cc1ccccc1[N+](=O)[O-] | 12600 | 4.8 | 
7 | Cc1noc(C)c1-c1ccc2c(c1)C(OCCCN1CCOCC1)CC2 (racemic) | 6310 |  | 
8 | Cc1noc(C)c1-c1ccc2c(c1)C(OCc1ccc3ccccc3n1)CC2 (racemic) | 20000 |  | 
9 | Cc1noc(C)c1-c1ccc2ncn(Cc3cccc(Br)c3)c2c1 | 1000 | < 5 | 
10 | Cc1noc(C)c1-c1ccc2ncn(Cc3ccccc3C#N)c2c1 | 1000 | 5.9 | 
11 | Cc1noc(C)c1-c1ccc2c(c1)C(OCCCN1CCCC1)CC2 (racemic) | 6310 |  | 
12 | COC(=O)c1ccc(Cn2cnc3ccc(-c4c(C)noc4C)cc32)cc1 | 1260 | < 4 | 
13 | Cc1noc(C)c1-c1ccc2c(c1)C(OCCCN1CCCCC1)CC2 (racemic) | 6310 |  | 
14 | Cc1noc(C)c1-c1ccc2ncn(Cc3ccccc3[N+](=O)[O-])c2c1 | 631 | < 4 | 
15 | Cc1noc(C)c1-c1ccc2ncn(Cc3ccc(C#N)cc3)c2c1 | 200 | < 4 | Ratio IC50 (Homo sapiens [3]): 100; ΔTm [4]: 0.1 °C; ΔTm [5]: -0.1 °C; ΔTm (Homo sapiens [6]): 1.1 °C; ΔTm [7]: -0.2 °C; ΔTm [8]: 0 °C; ΔTm [9]: -0.1 °C; ΔTm [10]: -0.4 °C; IC50 ([1]; read-out: IC50): 180 nM; ΔTm [11]: 3.2 °C; ΔTm [12]: -0.2 °C
16 | Cc1noc(C)c1-c1ccc2cc[nH]c2c1 | 20000 | < 5 | 
17 | Cc1noc(C)c1-c1ccc2ncn(Cc3cccc(C(=O)N(C)C)c3)c2c1 | 631 | 5.2 | 
18 | COc1ccc(Cn2c(C)nc3ccc(-c4c(C)noc4C)cc32)cc1 | 1580 | 4.6 | 
19 | Cc1noc(C)c1-c1ccc2c(c1)ncn2Cc1ccc(Cl)cc1 | 2510 | 5.7 | 
20 | Cc1noc(C)c1-c1ccc2c(c1)ncn2Cc1cccc(Br)c1 | 1580 | 5.6 | 
21 | Cc1noc(C)c1-c1ccc2ncn(Cc3ccc(C(=O)N(C)C)cc3)c2c1 | 2000 | 5.2 | 
22 | Cc1noc(C)c1-c1ccc2c(c1)C(OCc1ccccc1)CC2 (racemic) | 31600 |  | 
23 | Cc1noc(C)c1-c1ccc2ncn(Cc3ccccc3Cl)c2c1 | 794 | < 5 | 
24 | Cc1noc(C)c1-c1ccc2ncn(Cc3ccc(Cl)c(Cl)c3)c2c1 | 3980 | < 4 | 
25 | Cc1noc(C)c1-c1ccc2c(c1)C(=O)CC2 | 63100 | < 4.6 | 
26 | Cc1noc(C)c1-c1ccc2c(c1)ncn2Cc1ccc(Cl)c(Cl)c1 | 10000 | 5.9 | 
27 | Cc1noc(C)c1-c1ccc2c(c1)nc(C)n2Cc1ccc(O)cc1 | 2000 | 5.1 | 
28 | Cc1noc(C)c1-c1ccc2nc[nH]c2c1 | 6310 | 5.4 | 
